Measurements reported in ChEMBL document CHEMBL5034010, “Novel Cephalosporin Conjugates Display Potent and Selective Inhibition of Imipenemase-Type Metallo-β-Lactamases” (J Med Chem, 2021).
In brackets after ≈: the same amount, converted by molar mass. Activity calls are given as the source filed them. No cut-off for these calls is given here.

Columns and labels:
Escherichia coli [1] = test: Inhibition of Metallo-beta-lactamase NDM-1 in Escherichia coli clinical isolate assessed as fold reduction in meropenem MIC at 64 ug/ml; settings: dose 64.0 µg/ml
Klebsiella pneumoniae [2] = test: Substrate activity at Klebsiella pneumoniae beta-lactamase IMP-28 assessed as compound hydrolysis by measuring Km by Michaelis-Menten analysis
Klebsiella pneumoniae [3] = test: Inhibition of Metallo-beta-lactamase IMP-28 in Klebsiella pneumoniae clinical isolate assessed as MIC for meropenem antibacterial activity at 32 ug/ml (reference value: 4 ug/ml); settings: dose 32.0 µg/ml
Escherichia coli [4] = test: Substrate activity at Escherichia coli beta-lactamase VIM-2 assessed as compound hydrolysis by measuring Km by Michaelis-Menten analysis
[5] = Stability of the compound in Muller hinton broth assessed compound remaining measured after 15 hrs by HPLC analysis; assay type: physicochemical; settings: Mueller Hinton broth, read-out: Stability
Enterobacter cloacae [6] = test: Inhibition of Metallo-beta-lactamase IMP-1 in Enterobacter cloacae clinical isolate assessed as fold reduction in meropenem MIC at 32 ug/ml; settings: dose 32.0 µg/ml
Escherichia coli [7] = test: Inhibition of Metallo-beta-lactamase NDM-1 in Escherichia coli clinical isolate assessed as MIC for meropenem antibacterial activity at 32 ug/ml (reference value: 32 ug/ml); settings: dose 32.0 µg/ml
Klebsiella pneumoniae [8] = test: Inhibition of Metallo-beta-lactamase IMP-28 in Klebsiella pneumoniae clinical isolate assessed as fold reduction in meropenem MIC at 128 ug/ml; settings: dose 128.0 µg/ml
Enterobacter cloacae [9] = test: Inhibition of Enterobacter cloacae Metallo-beta-lactamase IMP-1
Klebsiella pneumoniae [10] = test: Substrate activity at Klebsiella pneumoniae beta-lactamase IMP-28 assessed as compound hydrolysis by measuring Kcat/Km by Michaelis-Menten analysis
Escherichia coli [11] = test: Substrate activity at Escherichia coli beta-lactamase VIM-2 assessed as compound hydrolysis by measuring Kcat/Km by Michaelis-Menten analysis
Klebsiella pneumoniae [12] = test: Antibacterial activity against beta-lactamase IMP-28 producing Klebsiella pneumoniae clinical isolate measured upto 128 ug/ml; assay type: functional, organism-based
Klebsiella pneumoniae [13] = test: Inhibition of Metallo-beta-lactamase IMP-28 in Klebsiella pneumoniae clinical isolate assessed as fold reduction in meropenem MIC at 32 ug/ml; settings: dose 32.0 µg/ml
Escherichia coli [14] = test: Substrate activity at Escherichia coli beta-lactamase NDM-1 assessed as compound hydrolysis by measuring Km by Michaelis-Menten analysis
Escherichia coli [15] = test: Inhibition of Metallo-beta-lactamase VIM-2 in Escherichia coli clinical isolate assessed as fold reduction in meropenem MIC at 64 ug/ml; settings: dose 64.0 µg/ml
[16] = Inhibition of Escherichia coli beta-lactamase VIM-2 using nitrocefin chromogenic substrate measured after 15 to 60 min at 25 degC by microplate reader
Escherichia coli [17] = test: Inhibition of Metallo-beta-lactamase VIM-2 in Escherichia coli clinical isolate assessed as fold reduction in meropenem MIC at 32 ug/ml; settings: dose 32.0 µg/ml
Escherichia coli [18] = test: Substrate activity at Escherichia coli beta-lactamase NDM-1 assessed as compound hydrolysis by measuring kcat/km by Michaelis-Menten analysis
Escherichia coli [19] = test: Inhibition of Metallo-beta-lactamase NDM-1 in Escherichia coli clinical isolate assessed as fold reduction in meropenem MIC at 32 ug/ml; settings: dose 32.0 µg/ml
Escherichia coli [20] = test: Inhibition of Metallo-beta-lactamase NDM-1 in Escherichia coli clinical isolate assessed as MIC for meropenem antibacterial activity at 64 ug/ml (reference value: 32 ug/ml); settings: dose 64.0 µg/ml
Escherichia coli [21] = test: Antibacterial activity against beta-lactamase VIM2 producing Escherichia coli clinical isolate measured upto 128 ug/ml; assay type: functional, organism-based
Klebsiella pneumoniae [22] = test: Inhibition of Metallo-beta-lactamase IMP-28 in Klebsiella pneumoniae clinical isolate assessed as MIC for meropenem antibacterial activity at 128 ug/ml (reference value: 4 ug/ml); settings: dose 128.0 µg/ml
Klebsiella pneumoniae [23] = test: Inhibition of Klebsiella pneumoniae beta Metallo-beta-lactamase IMP-28
Escherichia coli [24] = test: Substrate activity at Escherichia coli beta-lactamase VIM-2 assessed as compound hydrolysis by measuring Kcat by Michaelis-Menten analysis
[25] = Stability of the compound assessed as Klebsiella pneumoniae beta-lactamase IMP-28-mediated degradation by measuring appearance of vinyl protons release measured after 120 mins by NMR spectra; assay type: ADME; settings: 2 h
Escherichia coli [26] = test: Inhibition of Metallo-beta-lactamase NDM-1 in Escherichia coli clinical isolate assessed as fold reduction in meropenem MIC at 128 ug/ml; settings: dose 128.0 µg/ml
Escherichia coli [27] = test: Antibacterial activity against beta-lactamase NDM1 producing Escherichia coli clinical isolate measured upto 128 ug/ml; assay type: functional, organism-based
Enterobacter cloacae [28] = test: Inhibition of Metallo-beta-lactamase IMP-1 in Enterobacter cloacae clinical isolate assessed as fold reduction in meropenem MIC at 64 ug/ml; settings: dose 64.0 µg/ml
Enterobacter cloacae [29] = test: Inhibition of Metallo-beta-lactamase IMP-1 in Enterobacter cloacae clinical isolate assessed as fold reduction in meropenem MIC at 128 ug/ml; settings: dose 128.0 µg/ml
Enterobacter cloacae [30] = test: Inhibition of Metallo-beta-lactamase IMP-1 in Enterobacter cloacae clinical isolate assessed as MIC for meropenem antibacterial activity at 128 ug/ml (reference value: 32 ug/ml); settings: dose 128.0 µg/ml
Escherichia coli [31] = test: Inhibition of Metallo-beta-lactamase NDM-1 in Escherichia coli clinical isolate assessed as MIC for meropenem antibacterial activity at 128 ug/ml (reference value: 32 ug/ml); settings: dose 128.0 µg/ml
Enterobacter cloacae [32] = test: Antibacterial activity against beta-lactamase IMP1 producing Enterobacter cloacae clinical isolate measured upto 128 ug/ml; assay type: functional, organism-based
Klebsiella pneumoniae [33] = test: Substrate activity at Klebsiella pneumoniae beta-lactamase IMP-28 assessed as compound hydrolysis by measuring Kcat by Michaelis-Menten analysis
[34] = Inhibition of Enterobacter cloacae IMP-1 using nitrocefin chromogenic substrate measured after 15 to 60 min at 25 degC by microplate reader
[35] = Inhibition of Klebsiella pneumoniae beta-lactamase IMP-28 using nitrocefin chromogenic substrate measured after 15 to 60 min at 25 degC by microplate reader
Escherichia coli [36] = test: Inhibition of Metallo-beta-lactamase VIM-2 in Escherichia coli clinical isolate assessed as MIC for meropenem antibacterial activity at 64 ug/ml (reference value: 8 ug/ml); settings: dose 64.0 µg/ml
[37] = Metabolic stability of the compound assessed as Klebsiella pneumoniae beta-lactamase IMP-28-mediated metabolism by (2R)-2-((R)-carboxy(2-phenylacetamido)methyl)-5-((carboxy(phenyl)methylthio)methyl)-5,6-dihydro-2H-1,3-thiazine-4-carboxylic acid by LC-MS analysis; assay type: ADME
Klebsiella pneumoniae [38] = test: Inhibition of Metallo-beta-lactamase IMP-28 in Klebsiella pneumoniae clinical isolate assessed as fold reduction in meropenem MIC at 64 ug/ml; settings: dose 64.0 µg/ml
[39] = Inhibition of Escherichia coli beta-lactamase NDM-1 using nitrocefin chromogenic substrate measured after 15 to 60 min at 25 degC by microplate reader
Enterobacter cloacae [40] = test: Inhibition of Metallo-beta-lactamase IMP-1 in Enterobacter cloacae clinical isolate assessed as MIC for meropenem antibacterial activity at 64 ug/ml (reference value: 32 ug/ml); settings: dose 64.0 µg/ml
Klebsiella pneumoniae [41] = test: Inhibition of Metallo-beta-lactamase IMP-28 in Klebsiella pneumoniae clinical isolate assessed as MIC for meropenem antibacterial activity at 64 ug/ml (reference value: 4 ug/ml); settings: dose 64.0 µg/ml
Escherichia coli [42] = test: Inhibition of Metallo-beta-lactamase VIM-2 in Escherichia coli clinical isolate assessed as MIC for meropenem antibacterial activity at 128 ug/ml (reference value: 8 ug/ml); settings: dose 128.0 µg/ml
Escherichia coli [43] = test: Inhibition of Metallo-beta-lactamase VIM-2 in Escherichia coli clinical isolate assessed as fold reduction in meropenem MIC at 128 ug/ml; settings: dose 128.0 µg/ml
Escherichia coli [44] = test: Inhibition of Metallo-beta-lactamase VIM-2 in Escherichia coli clinical isolate assessed as MIC for meropenem antibacterial activity at 32 ug/ml (reference value: 8 ug/ml); settings: dose 32.0 µg/ml
Escherichia coli [45] = test: Substrate activity at Escherichia coli beta-lactamase NDM-1 assessed as compound hydrolysis by measuring Kcat by Michaelis-Menten analysis
Enterobacter cloacae [46] = test: Inhibition of Metallo-beta-lactamase IMP-1 in Enterobacter cloacae clinical isolate assessed as MIC for meropenem antibacterial activity at 32 ug/ml (reference value: 32 ug/ml); settings: dose 32.0 µg/ml
[47] = Binding affinity to Zinc incubated for 2 hrs measured by isothermal titration calorimetric assay

**Q.** With `O=C(Cc1ccccc1)N[C@@H]1C(=O)N2C(C(=O)O)=C(CSC(C(=O)O)c3ccccc3)CS[C@H]12` (some centres not stated) as the compound, how does the fold change (FC) (Escherichia coli [1]) read?
**A.** 2

**Q.** And the Km (Klebsiella pneumoniae [2])?
**A.** 129 µM

**Q.** What about the MIC (Klebsiella pneumoniae [3]) of the same compound?
**A.** < 0.063 µg/mL

**Q.** What about the Km (Escherichia coli [4]) of the same compound?
**A.** 8.28 µM

**Q.** What about the remaining at 15 h [5] of the same compound?
**A.** > 95%

**Q.** What about the fold change (FC) (Enterobacter cloacae [6]) of the same compound?
**A.** 32

**Q.** What about the MIC (Escherichia coli [7]) of the same compound?
**A.** 16 µg/mL (≈ 32.1 µM)

**Q.** What about the fold change (FC) (Klebsiella pneumoniae [8]) of the same compound?
**A.** > 64

**Q.** What about the inhibition (Enterobacter cloacae [9]) of the same compound?
**A.** Active

**Q.** What about the kcat/Km (Klebsiella pneumoniae [10]) of the same compound?
**A.** 3000 M⁻¹ s⁻¹

**Q.** And the kcat/Km (Escherichia coli [11])?
**A.** 490000 M⁻¹ s⁻¹

**Q.** What about the Activity (Klebsiella pneumoniae [12]) of the same compound?
**A.** inactive

**Q.** And the fold change (FC) (Klebsiella pneumoniae [13])?
**A.** > 64

**Q.** What about the Km (Escherichia coli [14]) of the same compound?
**A.** 14 µM

**Q.** What about the fold change (FC) (Escherichia coli [15]) of the same compound?
**A.** 4

**Q.** What about the IC50 [16] of the same compound?
**A.** 10 µM

**Q.** What about the fold change (FC) (Escherichia coli [17]) of the same compound?
**A.** 2

**Q.** What about the kcat/Km (Escherichia coli [18]) of the same compound?
**A.** 936000 M⁻¹ s⁻¹

**Q.** What about the fold change (FC) (Escherichia coli [19]) of the same compound?
**A.** 2

**Q.** And the MIC (Escherichia coli [20])?
**A.** 16 µg/mL (≈ 32.1 µM)

**Q.** What about the Activity (Escherichia coli [21]) of the same compound?
**A.** inactive

**Q.** What about the MIC (Klebsiella pneumoniae [22]) of the same compound?
**A.** < 0.063 µg/mL

**Q.** And the inhibition (Klebsiella pneumoniae [23])?
**A.** Active

**Q.** What about the kcat (Escherichia coli [24]) of the same compound?
**A.** 4.06 s⁻¹

**Q.** What about the Stability [25] of the same compound?
**A.** Stable

**Q.** And the fold change (FC) (Escherichia coli [26])?
**A.** 4

**Q.** What about the Activity (Escherichia coli [27]) of the same compound?
**A.** inactive

**Q.** What about the fold change (FC) (Enterobacter cloacae [28]) of the same compound?
**A.** 64

**Q.** And the fold change (FC) (Enterobacter cloacae [29])?
**A.** 64

**Q.** What about the MIC (Enterobacter cloacae [30]) of the same compound?
**A.** 0.5 µg/mL (≈ 1 µM)

**Q.** And the MIC (Escherichia coli [31])?
**A.** 8 µg/mL (≈ 16 µM)

**Q.** And the Activity (Enterobacter cloacae [32])?
**A.** inactive

**Q.** And the kcat (Klebsiella pneumoniae [33])?
**A.** 0.386 s⁻¹

**Q.** What about the IC50 [34] of the same compound?
**A.** 0.47 µM

**Q.** And the IC50 [35]?
**A.** 0.46 µM

**Q.** And the MIC (Escherichia coli [36])?
**A.** 2 µg/mL (≈ 4.01 µM)

**Q.** What about the Drug metabolism [37] of the same compound?
**A.** Metabolite_Detected

**Q.** And the fold change (FC) (Klebsiella pneumoniae [38])?
**A.** > 64

**Q.** What about the IC50 [39] of the same compound?
**A.** > 100 µM

**Q.** And the MIC (Enterobacter cloacae [40])?
**A.** 0.5 µg/mL (≈ 1 µM)

**Q.** And the MIC (Klebsiella pneumoniae [41])?
**A.** < 0.063 µg/mL

**Q.** What about the MIC (Escherichia coli [42]) of the same compound?
**A.** 1 µg/mL (≈ 2.01 µM)

**Q.** What about the fold change (FC) (Escherichia coli [43]) of the same compound?
**A.** 8

**Q.** What about the MIC (Escherichia coli [44]) of the same compound?
**A.** 4 µg/mL (≈ 8.02 µM)

**Q.** And the kcat (Escherichia coli [45])?
**A.** 13.1 s⁻¹

**Q.** And the MIC (Enterobacter cloacae [46])?
**A.** 1 µg/mL (≈ 2.01 µM)

**Q.** With `O=C(Cc1ccccc1)N[C@H](C(=O)O)[C@@H]1N=C(C(=O)O)C(CSC(C(=O)O)c2ccccc2)CS1` (some centres not stated) as the compound, how does the Kd [47] read?
**A.** 9.67 µM

**Q.** And the inhibition (Enterobacter cloacae [9])?
**A.** Active

**Q.** And the inhibition (Klebsiella pneumoniae [23])?
**A.** Active

**Q.** Which Kd [47] does the source give for `O=C(Cc1ccccc1)N[C@H](C(=O)O)[C@@H]1N=C(C(=O)O)C(CSC(Cc2ccccc2)C(=O)O)CS1` (some centres not stated) here?
**A.** 3.19 µM

**Q.** And the inhibition (Enterobacter cloacae [9])?
**A.** Active

**Q.** And the inhibition (Klebsiella pneumoniae [23])?
**A.** Active
